“And” between values parts separate entries of the source, which are not always exact repeats. Equal values may be shown once. Read-outs that look alike come from different tables or passages of the source. Bridges are numbered along the chain shown (N, C = ends).
What was measured:
mAb 2C7 = experiment: Inhibition ELISA: inhibition of mAb 2C7 binding to immobilized gonococcal LOS
From the text: FIGS. 1A-1B show the structure and characterization of one of the peptide mimics described herein (also referred to as TMCP2). […] The 2C7 mimitope is indicated in shown as the sequence “H2C-CO-GPIPVLDENGLFAPGPC” (SEQ ID NO: 1) Cyclization is maintained through a thioether bond. The reverse peptide mimic core is represented the schematic of the peptide mimic as “Ac-β-Ala-Glu[Glu-OH]2.” The reverse peptide mimic core links to each cyclic peptide through a lysine (K) residue.
In order to compare antigenicity of peptide mimic Core Peptide 2 (monomeric cyclic CP2) and composite TMCP2 compounds with LOS that expresses the 2C7 epitope, inhibition ELISA was performed using mAb 2C7 reacted with the individual compounds to assess inhibition of binding (residual binding) of mAb to LOS by each compound. Microtiter wells were coated with LOS (80 μg/ml in PBS) purified from strain FA1090. Wells were washed and blocked with PBS-0.05% Tween 20. mAb 2C7 (0.04 μg/ml) either alone or containing monomeric cyclic peptide CP2 (1.07 to 1070 μM) or composite TMCP2 (concentrations ranging from […]) was dispended into LOS coated wells. Residual binding of 2C7 mAb was measured with anti-mouse IgG conjugated to alkaline phosphatase. Bound IgG was quantitated using a mouse IgG standard curve and percent inhibition determined compared to reaction mixtures that […].
Attempts to measure mAb 2C7 (7) binding directly to immobilized peptide mimic Core Peptide 2 (abbreviated CP2 in FIG. 1A) and composite TMCP2 by ELISA were not successful. The possibility of poor capture of the peptides by the microtiter wells was considered and therefore used an ELISA to measure inhibition of binding (residual binding) of mAb 2C7 to immobilized gonococcal LOS that had been reacted with increasing concentrations of the peptides (FIG. 1B).

[1] = test system: LOS purified from N. gonorrhoeae strain 15253; format: in vivo; settings: for mean anti-LOS IgG level: n=13
N. gonorrhoeae MS11 = experiment: Serum bactericidal assay, immune mouse sera plus human complement; format: cell-based; settings: for killing of MS11, all 13 immune sera: 50 μg/dose schedule
Description: Because earlier it was observed that sera from naïve and mice given adjuvant alone manifest bactericidal activity mediated by IgM, mouse IgM was depleted from all sera collected as part of immunization studies. Sera from mice diluted 1:1 in PBS was mixed with anti-mouse IgM agarose (Sigma; binding capacity ≥0.4 mg/ml) (1 volume of packed agarose to 1 volume of serum diluted 1:1) in a 2.0 ml microspin filter column (Costar) with a pore size of 0.22 μM) for 15 min at 22° C. Filter-sterilized IgM depleted sera were collected by centrifugation of the mixture at 1000 g for 2 min and heat-inactivated (56° C. for 30 min) to eliminate intrinsic complement activity in mouse serum prior to use in serum bactericidal assays where human complement was substituted.
Serum bactericidal assays were performed. Bacteria that had been harvested from an overnight culture on chocolate agar plates were repassaged onto fresh chocolate agar and allowed to grow for 6 h at 37° C. in an atmosphere containing 5% CO2. Bacteria were then suspended in HBSS containing 1 mM MgCl2 and 0.15 mM CaCl2) (HBSS++) for use in serum bactericidal assays. Briefly, about 2000 colony forming units (CFUs) of N. gonorrhoeae FA090 were incubated with serial dilutions of immune mouse sera (heat-inactivated and IgM-depleted) in the presence or absence of 20% normal human serum (NHS) as a source of human complement. Serum bactericidal assays with strain MS11 were performed with IgG and IgM depleted NHS (Human complement; Pel-Freez) because this strain is susceptible to killing by NHS. Final volumes of bactericidal reaction mixtures were 150 μl. Aliquots of 25-μl reaction mixtures were plated onto chocolate agar in duplicate at the beginning of the assay (to) and again after incubation at 37° C. for 30 min (t30). Survival was calculated as the number of viable colonies at t30 relative to t0.

[2] = test system: N. gonorrhoeae strain FA1090; experiment: Mouse vaginal colonization model (protection experiment); format: in vivo; settings: BALB/c n=14/group; TMCP2 50 μg + GLA-SE, 3 doses 2 weeks apart
Description: Use of animals in this study was performed in strict accordance with the recommendations in the Guide for the Care and Use of Laboratory Animals of the National Institutes of Health. The protocol was approved by the Institutional Animal Care and Use Committee (IACUC) at the University of Massachusetts Medical School. The BALB/c mouse model of vaginal colonization described by Jerse was used (25). Two weeks after the last immunization, mice in the diestrus phase of the estrous cycle were started on treatment (that day) with 0.1 mg PREMARIN® (Pfizer; a mixture of sodium estrone sulfate and sodium equilin sulfate also containing sodium sulfate conjugates of 17α-dihydroequilin, 17α-estradiol and 17β-dihydroequilin) in 200 μl of water, given subcutaneously on each of three days; −2, 0 and +2 days (before, the day of and after gonococcal inoculation) to prolong the estrus phase of the reproductive cycle and promote susceptibility to N. gonorrhoeae infection. […]
Experiments that compared clearance of N. gonorrhoeae in independent groups of mice estimated and tested three characteristics of the data (13): 1) time to clearance; 2) longitudinal trends in mean log10 CFU; 3) and the cumulative CFU as area under the curve (AUC). […] A quadratic or cubic function in time was determined to provide the best fit; random slopes were linear in time. […]

[3] = TMCP2 50 μg + GLA-SE, 3 doses 2 weeks apart, 11 mice

[(CH2-CO-GPIPVLDENGLFAPGPC)-K-OH]4 ({CH2CO}-GPIPVLDENGLFAPGPCK-OH; thioether N-17; also: tetrameric MAP) [TMCP2]
fold lower molar concentration of TMCP2 (compared to CP2) required to achieve 50% inhibition (mAb 2C7): ~4 fold
IC50 (mAb 2C7; mAb 2C7 0.04 μg/ml, LOS-coated wells, read-out: concentration giving 50% inhibition of mAb 2C7 binding to immobilized 15253 LOS): 25 µM
anti-LOS IgG in vaginal swabs ([1]; 5 mice, TMCP2 50 μg/dose + GLA-SE at 0, 2, 4 weeks, 2 weeks after third dose): detected
anti-LOS IgG levels in intact immune sera, all mice ([1]; BALB/c, n=13 per group, TMCP2 50, 100 or 200 μg/dose + GLA-SE, 3 weeks apart): exceeded 2 μg/ml
anti-LOS IgG response in 3 of 5 mice ([1]; BALB/c, TMCP2 50 μg dose + GLA-SE, 3 doses): exceeded 10 μg/ml
anti-LOS IgG response, every mouse ([1]; BALB/c, TMCP2 50, 100 or 200 μg + GLA-SE, 3 doses 3 weeks apart, two weeks after final boosting): exceeded 2 μg/ml
mean anti-LOS level, post-dose 3 immune sera [1, 3]: 2.31 µg/mL
range of anti-LOS level, post-dose 3 immune sera [1, 3]: 1.33 to 3.59 µg/mL
mean anti-LOS IgG level ([1]; TMCP2 50 μg/dose + GLA-SE, 3 doses 3 weeks apart): 4.98 µg/mL
mean anti-LOS IgG level ([1]; TMCP2 100 μg/dose + GLA-SE, 3 doses 3 weeks apart): 4.06 µg/mL
mean anti-LOS IgG level ([1]; TMCP2 200 μg/dose + GLA-SE, 3 doses 3 weeks apart): 3.8 µg/mL
IgM response to the 2C7 epitope ([1]; pooled post-dose 3 sera, IgM binding to 15253 LOS vs 15253 ΔlgtG LOS): no apparent IgM response
anti-LOS titers in immunization experiments ([1]; tetrapeptides 50 μg/dose plus Sigma MPL adjuvant, BALB/c, FIG. 10): higher anti-LOS titers than TMCP4
killing of MS11, all 13 immune sera (N. gonorrhoeae MS11; immune serum 3.3%): > 60%
killing of MS11, all 13 immune sera (N. gonorrhoeae MS11; immune serum 6.7%): > 98%
complement-dependent killing of MS11, all sera in each group (N. gonorrhoeae MS11; 13 sera per group after 3rd dose, 16.7% (1/6 dilution)): > 50%
Survival in intact immune serum (N. gonorrhoeae MS11; Table 6, TMCP2 50 μg/dose + GLA-SE, immune serum 6.7% (1/15), 6.7% IgG/IgM-depleted NHS (Pel-Freez)): 0.00% and 1.52% and 0.47% and 0.93%
gonococcal colonization, biweekly schedule [2]: effectively attenuated gonococcal colonization

Source: patent publication US12629410B2, “Multi-antigenic peptide mimics of gonococcal lipo-oligosaccharide (LOS) epitopes” (priority 2019, dated 2026)
